From PubChem BioAssay (NCI)
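Where inhibition never reached the appropriate level, the endpoint shown equals the highest concentration tested. Otherwise, values were interpolated linearly from a five-concentration, 48-hour dose response in 96-well plates. At the TGI there is no net growth.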

Assays:
Experiment in all cases: growth of human tumour cells (NCI), 48 h
MALME-3M melanoma = system: MALME-3M melanoma
HS 578T breast = system: HS 578T breast
NCI-H23 lung = system: NCI-H23 lung
RXF 393 renal = system: RXF 393 renal
ACHN renal = system: ACHN renal
UO-31 renal = system: UO-31 renal
NCI-H460 lung = system: NCI-H460 lung
HT29 colon = system: HT29 colon
SR leukemia = system: SR leukemia
HOP-62 NSCLC = system: HOP-62 NSCLC
NCI/ADR-RES ovarian = system: NCI/ADR-RES ovarian
SF-295 CNS = system: SF-295 CNS
U251 CNS = system: U251 CNS
NCI-H522 lung = system: NCI-H522 lung
SK-MEL-5 melanoma = system: SK-MEL-5 melanoma
MDA-N = system: MDA-N
HCC-2998 colon = system: HCC-2998 colon
SK-MEL-28 melanoma = system: SK-MEL-28 melanoma
A549 NSCLC = system: A549 NSCLC
SF-539 CNS = system: SF-539 CNS
T-47D breast = system: T-47D breast
PC-3 prostate = system: PC-3 prostate
KM12 colon = system: KM12 colon
BT-549 breast = system: BT-549 breast
SW-620 colon = system: SW-620 colon
A498 renal = system: A498 renal
SNB-75 CNS = system: SNB-75 CNS
SK-OV-3 ovarian = system: SK-OV-3 ovarian
MCF7 breast = system: MCF7 breast
SK-MEL-2 melanoma = system: SK-MEL-2 melanoma
CCRF-CEM leukemia = system: CCRF-CEM leukemia
UACC-62 melanoma = system: UACC-62 melanoma
IGROV1 ovarian = system: IGROV1 ovarian
OVCAR-4 ovarian = system: OVCAR-4 ovarian
CAKI-1 renal = system: CAKI-1 renal
RPMI-8226 leukemia = system: RPMI-8226 leukemia
786-0 renal = system: 786-0 renal
MDA-MB-231 breast = system: MDA-MB-231 breast
NCI-H226 lung = system: NCI-H226 lung
HCT-15 colon = system: HCT-15 colon
UACC-257 melanoma = system: UACC-257 melanoma
SN12C renal = system: SN12C renal
MOLT-4 leukemia = system: MOLT-4 leukemia
HCT-116 colon = system: HCT-116 colon
SNB-19 CNS = system: SNB-19 CNS
MDA-MB-435 = system: MDA-MB-435
COLO 205 colon = system: COLO 205 colon
DU-145 prostate = system: DU-145 prostate
EKVX NSCLC = system: EKVX NSCLC
OVCAR-8 ovarian = system: OVCAR-8 ovarian
LOX IMVI melanoma = system: LOX IMVI melanoma
TK-10 renal = system: TK-10 renal
OVCAR-3 ovarian = system: OVCAR-3 ovarian
SF-268 CNS = system: SF-268 CNS
OVCAR-5 ovarian = system: OVCAR-5 ovarian
K-562 leukemia = system: K-562 leukemia
M14 melanoma = system: M14 melanoma
HOP-92 NSCLC = system: HOP-92 NSCLC

Work on `O=[N+]([O-])/C(C(Cl)=C(Cl)Cl)=C(\N1CCCCC1)n1cncn1` yielded a TGI (MALME-3M melanoma) of 30.9 µM, a TGI (HS 578T breast) of 28.2 µM and a TGI (NCI-H23 lung) of 30.2 µM. The TGI (RXF 393 renal) was 24.2 µM, the TGI (ACHN renal) was 32.7 µM and the TGI (UO-31 renal) was 30.8 µM. For the same molecule, the TGI (NCI-H460 lung) was 72.1 µM, the TGI (HT29 colon) was 37.5 µM and the TGI (SR leukemia) was greater than 100 µM. The TGI (HOP-62 NSCLC) was 37.7 µM, the TGI (NCI/ADR-RES ovarian) was 56 µM and the TGI (SF-295 CNS) was 35.8 µM. For the same molecule, the TGI (U251 CNS) was 29.7 µM, the TGI (NCI-H522 lung) was 31.6 µM and the TGI (SK-MEL-5 melanoma) was 25.3 µM. The TGI (MDA-N) was 32.8 µM, the TGI (HCC-2998 colon) was 40.5 µM and the TGI (SK-MEL-28 melanoma) was 37.5 µM. For the same molecule, the TGI (A549 NSCLC) was 39.8 µM, the TGI (SF-539 CNS) was 31.4 µM and the TGI (T-47D breast) was 38.3 µM. It also gave a TGI (PC-3 prostate) of 31.7 µM, a TGI (KM12 colon) of 40.8 µM and a TGI (BT-549 breast) of 31.6 µM. The TGI (SW-620 colon) was 36.9 µM, the TGI (A498 renal) was 31.4 µM and the TGI (SNB-75 CNS) was 49.4 µM. It also gave a TGI (SK-OV-3 ovarian) of 37.3 µM, a TGI (MCF7 breast) of 50.6 µM and a TGI (SK-MEL-2 melanoma) of 43.8 µM. It also gave a TGI (CCRF-CEM leukemia) greater than 100 µM, a TGI (UACC-62 melanoma) of 33 µM and a TGI (IGROV1 ovarian) of 24 µM. It also gave a TGI (OVCAR-4 ovarian) of 36.7 µM, a TGI (CAKI-1 renal) of 25.2 µM and a TGI (RPMI-8226 leukemia) of 57.2 µM. For the same molecule, the TGI (786-0 renal) was 52.4 µM, the TGI (MDA-MB-231 breast) was 30.1 µM and the TGI (NCI-H226 lung) was 40.3 µM. It also gave a TGI (HCT-15 colon) of 38.1 µM, a TGI (UACC-257 melanoma) of 36.6 µM and a TGI (SN12C renal) of 33.4 µM. The TGI (MOLT-4 leukemia) was greater than 50.5 µM, the TGI (HCT-116 colon) was 73.6 µM and the TGI (SNB-19 CNS) was 33.6 µM. It also gave a TGI (MDA-MB-435) of 36.3 µM, a TGI (COLO 205 colon) of 30.3 µM and a TGI (DU-145 prostate) of 30.3 µM. The TGI (EKVX NSCLC) was 31.6 µM, the TGI (OVCAR-8 ovarian) was 40.8 µM and the TGI (LOX IMVI melanoma) was 42.1 µM. The TGI (TK-10 renal) was 33.2 µM, the TGI (OVCAR-3 ovarian) was 32.2 µM and the TGI (SF-268 CNS) was 26.9 µM. It also gave a TGI (OVCAR-5 ovarian) of 32.1 µM, a TGI (K-562 leukemia) greater than 100 µM and a TGI (M14 melanoma) of 33.7 µM.

With `CN1COCc2c1ccc1cc3ccc4c(c3nc21)COCN4S(C)(=O)=O` the TGI (MALME-3M melanoma) was greater than 100 µM, the TGI (HS 578T breast) was greater than 100 µM and the TGI (NCI-H23 lung) was greater than 100 µM. The TGI (RXF 393 renal) was greater than 100 µM, the TGI (ACHN renal) was greater than 100 µM and the TGI (UO-31 renal) was greater than 100 µM. It also gave a TGI (NCI-H460 lung) greater than 100 µM, a TGI (HT29 colon) greater than 100 µM and a TGI (SR leukemia) greater than 100 µM. The TGI (HOP-62 NSCLC) was greater than 100 µM, the TGI (NCI/ADR-RES ovarian) was greater than 100 µM and the TGI (SF-295 CNS) was greater than 100 µM. The TGI (U251 CNS) was greater than 100 µM, the TGI (NCI-H522 lung) was greater than 100 µM and the TGI (SK-MEL-5 melanoma) was greater than 100 µM. It also gave a TGI (MDA-N) greater than 100 µM, a TGI (HCC-2998 colon) greater than 100 µM and a TGI (SK-MEL-28 melanoma) greater than 100 µM. It also gave a TGI (A549 NSCLC) greater than 100 µM, a TGI (T-47D breast) greater than 100 µM and a TGI (PC-3 prostate) greater than 100 µM. The TGI (KM12 colon) was greater than 100 µM, the TGI (BT-549 breast) was greater than 100 µM and the TGI (SW-620 colon) was greater than 100 µM. The TGI (A498 renal) was greater than 100 µM, the TGI (SNB-75 CNS) was 67.5 µM and the TGI (SK-OV-3 ovarian) was greater than 100 µM. The TGI (MCF7 breast) was greater than 100 µM, the TGI (CCRF-CEM leukemia) was greater than 100 µM and the TGI (HOP-92 NSCLC) was greater than 100 µM. For the same molecule, the TGI (UACC-62 melanoma) was greater than 100 µM, the TGI (IGROV1 ovarian) was greater than 100 µM and the TGI (OVCAR-4 ovarian) was greater than 100 µM. The TGI (CAKI-1 renal) was greater than 100 µM, the TGI (786-0 renal) was greater than 100 µM and the TGI (MDA-MB-231 breast) was greater than 100 µM. The TGI (NCI-H226 lung) was greater than 100 µM, the TGI (HCT-15 colon) was greater than 100 µM and the TGI (UACC-257 melanoma) was greater than 100 µM. The TGI (SN12C renal) was greater than 100 µM, the TGI (MOLT-4 leukemia) was greater than 100 µM and the TGI (HCT-116 colon) was greater than 100 µM. It also gave a TGI (SNB-19 CNS) greater than 100 µM, a TGI (MDA-MB-435) greater than 100 µM and a TGI (COLO 205 colon) greater than 100 µM. It also gave a TGI (DU-145 prostate) greater than 100 µM, a TGI (EKVX NSCLC) greater than 100 µM and a TGI (OVCAR-8 ovarian) greater than 100 µM. For the same molecule, the TGI (LOX IMVI melanoma) was greater than 100 µM, the TGI (TK-10 renal) was greater than 100 µM and the TGI (OVCAR-3 ovarian) was greater than 100 µM. For the same molecule, the TGI (SF-268 CNS) was greater than 100 µM, the TGI (OVCAR-5 ovarian) was greater than 100 µM and the TGI (K-562 leukemia) was greater than 100 µM. The TGI (M14 melanoma) was greater than 100 µM.

For `C=C1CCC(CC[C@@H]2CC[C@]3(OC2)O[C@@]2(O)CC[C@]3(C)OC2(C)C)C(C)(C)[C@H]1C/C=C1/C(=O)OC[C@@H]1O` (stereo not given in full), the TGI (MALME-3M melanoma) was 5.99 µM, the TGI (HS 578T breast) was 28.8 µM and the TGI (NCI-H23 lung) was 5.2 µM. For the same molecule, the TGI (RXF 393 renal) was 4.88 µM, the TGI (ACHN renal) was 6.89 µM and the TGI (UO-31 renal) was 9.33 µM. The TGI (NCI-H460 lung) was 15.1 µM, the TGI (HT29 colon) was 5.01 µM and the TGI (SR leukemia) was greater than 100 µM. For the same molecule, the TGI (HOP-62 NSCLC) was 19.9 µM, the TGI (NCI/ADR-RES ovarian) was 6.92 µM and the TGI (SF-295 CNS) was 10.5 µM. It also gave a TGI (U251 CNS) of 6.29 µM, a TGI (NCI-H522 lung) of 3.5 µM and a TGI (SK-MEL-5 melanoma) of 1.72 µM. For the same molecule, the TGI (MDA-N) was 4.36 µM, the TGI (HCC-2998 colon) was 10.2 µM and the TGI (SK-MEL-28 melanoma) was 3.58 µM. It also gave a TGI (A549 NSCLC) of 19.4 µM, a TGI (SF-539 CNS) of 9.18 µM and a TGI (T-47D breast) of 6.15 µM. It also gave a TGI (PC-3 prostate) of 10.7 µM, a TGI (KM12 colon) of 6.35 µM and a TGI (BT-549 breast) of 4.76 µM. It also gave a TGI (SW-620 colon) of 12.6 µM, a TGI (A498 renal) of 15.2 µM and a TGI (SNB-75 CNS) of 19.3 µM. It also gave a TGI (SK-OV-3 ovarian) of 16.6 µM, a TGI (MCF7 breast) of 2.94 µM and a TGI (SK-MEL-2 melanoma) of 1.36 µM. For the same molecule, the TGI (CCRF-CEM leukemia) was 2.32 µM, the TGI (HOP-92 NSCLC) was 6.51 µM and the TGI (UACC-62 melanoma) was 3.8 µM. The TGI (IGROV1 ovarian) was 11.6 µM, the TGI (OVCAR-4 ovarian) was 5.51 µM and the TGI (CAKI-1 renal) was 16.5 µM. The TGI (RPMI-8226 leukemia) was greater than 25.1 µM, the TGI (786-0 renal) was 7.78 µM and the TGI (MDA-MB-231 breast) was 3.72 µM. For the same molecule, the TGI (NCI-H226 lung) was 6.94 µM, the TGI (HCT-15 colon) was 3.25 µM and the TGI (UACC-257 melanoma) was 4.84 µM. For the same molecule, the TGI (SN12C renal) was 8.03 µM, the TGI (MOLT-4 leukemia) was 5.45 µM and the TGI (HCT-116 colon) was 4.89 µM. For the same molecule, the TGI (SNB-19 CNS) was 8.88 µM, the TGI (MDA-MB-435) was 5.82 µM and the TGI (COLO 205 colon) was 16.3 µM. The TGI (DU-145 prostate) was 14.8 µM, the TGI (EKVX NSCLC) was 11.3 µM and the TGI (OVCAR-8 ovarian) was 5.04 µM. The TGI (LOX IMVI melanoma) was 1.88 µM, the TGI (TK-10 renal) was 11.5 µM and the TGI (OVCAR-3 ovarian) was 7.41 µM. For the same molecule, the TGI (SF-268 CNS) was 8.89 µM, the TGI (OVCAR-5 ovarian) was 6.65 µM and the TGI (K-562 leukemia) was 2.38 µM. For the same molecule, the TGI (M14 melanoma) was 12.3 µM.
